Test results: US8686003B2, “Tissue non-specific alkaline phosphatase inhibitors and uses thereof for treating vascular calcification” (Sanford-Burnham Medical Research Institute, priority 2007, dated 2014)
Entries after “also recorded” stand apart in the source; their conditions may differ. Like-named read-outs stand apart in the source and are kept apart here.

Tests used:
human TNAP = molecular target: T1, human TNAP (Homo sapiens, UniProt P05186); experiment: Enzyme kinetic experiments, Ki and mechanism of TNAP inhibition; type: biochemical; conditions: for Ki: pNPP substrate
T1 construct: made in house; host or cells: COS-1 cells, transient expression; dialyzed serum-free conditioned medium
T1 sequence (P05186 18-502 limits assumed): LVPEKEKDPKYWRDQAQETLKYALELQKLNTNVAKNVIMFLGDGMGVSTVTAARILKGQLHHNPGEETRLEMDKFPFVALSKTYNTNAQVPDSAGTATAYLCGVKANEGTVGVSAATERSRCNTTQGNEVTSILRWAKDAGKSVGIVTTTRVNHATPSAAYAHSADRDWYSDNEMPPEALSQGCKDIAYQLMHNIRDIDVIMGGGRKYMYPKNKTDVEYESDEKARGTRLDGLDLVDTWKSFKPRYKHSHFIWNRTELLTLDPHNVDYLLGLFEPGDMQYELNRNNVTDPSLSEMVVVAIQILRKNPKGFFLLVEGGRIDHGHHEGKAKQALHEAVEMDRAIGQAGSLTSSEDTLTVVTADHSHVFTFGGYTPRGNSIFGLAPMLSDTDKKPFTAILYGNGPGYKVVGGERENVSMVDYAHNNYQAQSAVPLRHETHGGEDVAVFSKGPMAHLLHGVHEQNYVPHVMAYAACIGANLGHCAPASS
Procedure: Expression plasmids containing a secreted epitope-tagged TNAP, PLAP and IAP were transfected into COS-1 cells for transient expression using a standard electroporation method. Medium was replaced to Opti-MEM 24 hours later, and the serum free media containing secreted proteins were collected 60 hours after electroporation. Conditioned medium was dialyzed against TBS containing 1 mM MgCl2 ad 20 μM ZnCl2 (to remove phosphate) and filtrated with a 2 μm cellulose acetate filter.
[…] TNAP, PLAP and IAP activities were adjusted to an approximate ΔA405 nm, equivalent to 1, measured after 30 min. Residual AP activity in the presence of inhibitors was expressed as percentage of the control activity. To investigate the mechanism of inhibition, double reciprocal plots of enzyme activity (expressed as mA405 nm min^−1) vs. substrate concentration were constructed, in the presence of various concentrations of added inhibitors (0-30 μM). The y-axis intercepts of the 1/v vs. 1/[S] plots, were then plotted vs. [I] to graphically extract Ki values as the x-intercept in this plot. […] Inhibitors were further tested and sorted based on their kinetic properties at pH 7.4 using PPi, the relevant natural substrate of TNAP. […] Amounts of released phosphate were measured using the Biomol Green Reagent (Biomol Research Laboratories, Inc., Plymouth Meeting, Pa.).

[1] = tested on: endogenous pyrophosphatase activity in aortic rat rings; experiment: PPi hydrolysis by whole aortas ex vivo; conditions: 30 μM; for PPi hydrolysis / % Inhibition: aortic rat rings ex vivo; for % Inhibition: inhibition of PPi hydrolysis
Procedure: Rats were sacrificed and aortas perfused with Hanks salt solution to remove blood. The aortas were then removed and, after the adventitia was dissected away, were cut into rings approximately 2 mm in length. Four rings were placed in 1 ml of DMEM without serum containing the compounds to be tested. After 90 min at 37° C., sodium PPi (final concentration 1 μM) and [^32P]Pi (final concentration 1 μCurie/ml) were added and 6 samples were removed over 4 hours. Pi was separated from PPi by adding 800 μl of 0.028 M ammonium molybdate in 0.75 M H2SO4 to the samples and extracting with 1600 μl of isobutanol and petroleum ether (4:1). ^32P was counted in the organic phase by Cerenkov radiation. Hydrolysis of PPi was linear over 4 hours and the rate was determined by linear regression.
Furthermore, to measure the degree of pyrophosphatase inhibition by the new TNAP inhibitors, an ex vivo organ culture system in whole aortas was used. For this analysis, rat rather than mouse aortas were selected, as they are larger and easier to dissect.

Enpp1−/− VSMCs = experiment: In vitro calcification (mineralization) of VSMC cultures; type: cell-based, mouse; conditions: Enpp1−/− VSMC culture
Procedure: Vascular SMCs were isolated from explants using a collagenase digestion method and the smooth muscle phenotype was confirmed by RT-PCR analysis for smooth muscle α-actin. One mouse aorta provided on average, 5×10^5 cells. These cells were cultured (in triplicate) at a density of 3×10^4 cells/cm^2 using α-MEM supplemented with β-glycerophosphate (10 mM) and 50 μg/ml ascorbic acid for 3 weeks. To quantify calcium deposited in these cultures, either the o-cresolphthalein complexone method^(31) or the standard Alizarin Red method was used.

[2] = pH 7.5, 1 M Tris-HCl buffer, read-out: Ki (μM) @ pH 7.5
[3] = pH 9.8, 1 M DEA-HCl buffer, read-out: Ki (μM) @ pH 9.8

Row | Compound | Ki (human TNAP; [2]) [µM] | Ki (human TNAP; [3]) [µM] | PPi hydrolysis [1] [nmol/g/min] | % Inhibition [1] [%] | inhibition of mineralization (Enpp1−/− VSMCs) | potency at pH 7.5 compared with pH 9.8 (human TNAP) | potency relative to levamisole (human TNAP; Ki at physiological pH) | effect of competitive inhibitor Pi on potency (human TNAP; pH 7.4, 0.1 mM pNPP, Na2HPO4 0-10 mM) | effect of PPi on degree of inhibition (human TNAP; pH 7.4, 0.1 mM pNPP, pyrophosphate 0-40 mM) | suppression of endogenous pyrophosphatase activity (ranking) ([1]; rat whole aortas ex vivo)
1 | Cn1cnnc1SC(C(=O)c1ccccc1)c1ccccc1 (centres unmarked) | 6.4 ± 1.6 | 5.6 ± 1.6 | 0.269 ± 0.032 | 15.9 | – | – | – | – | – | –
2 | O=C(CSc1nnc[nH]1)NCCOc1ccccc1 | 33 ± 5.8 | 5.6 ± 0.7 | 0.249 ± 0.046 | 22.2 | – | – | – | – | – | –
3 | Cn1ccnc1Sc1nc(Nc2ccccc2)nc(Nc2ccccc2)n1 [compound 5804079] | 2.8 ± 0.4 | 6.5 ± 1.4 | 0.192 ± 0.041 | 39.9 | most inhibitory | more potent at pH 7.5 than at pH 9.8 | about 10 fold | does not affect the potency; also recorded: not affected by the presence of the competitive inhibitor Pi | does not affect the degree of inhibition; also recorded: not affected by high concentrations of PPi | most effective
4 | c1ccc([C@H]2CN3CCSC3=N2)cc1 [levamisole, (6S)-6-phenyl-2,3,5,6-tetrahydro-imidazo[2,1-b][1,3]thiazole, reference compound] | – | – | 0.252 ± 0.047 | 21.2 | – | – | – | – | – | –
